Where two headings read alike, the source gives them in different places. Blank lines part the entries; values can stand above or below the molecule they belong to.
Tests used:
Caco-2 WT cells [1] = test system: Caco-2 WT cells
[2] = test system: Caco^MRP2−/−BCRP−/− cells
[3] = Bidirectional transport assay, Caco^BCRP−/− and Caco^MRP2−/− cells taken together; assay type: in vitro ADME; conditions: human
Description: (§1) The medium was replaced every second day.
(§2) All these studies were conducted by following similar procedures. […] Then, HBSS was aspirated from both sides.
(§3) The flow rate was 0.3 mL/min.

[4] = Bidirectional transport assay across Caco-2 WT monolayers; conditions: human
Caco-2 WT cells [5] = assay: as above; conditions: WT Caco-2, 5 μM substrate, n = 3
[6] = Bidirectional transport assay across P-gp KO Caco-2 monolayers; conditions: human, pH 7.4
[7] = Bidirectional transport assay across BCRP KO Caco-2 monolayers; conditions: human; for Papp A→B at 1 h, 5 μM / Papp B→A at 1 h, 5 μM: pH 7.4
[8] = Bidirectional transport assay across MRP2 KO Caco-2 monolayers; conditions: human, pH 7.4
[9] = Bidirectional transport assay across P-gp/BCRP double KO Caco-2 monolayers; conditions: human, pH 7.4
[10] = Bidirectional transport assay across P-gp/MRP2 double KO Caco-2 monolayers; conditions: human, pH 7.4
[11] = Bidirectional transport assay across MRP2/BCRP double KO Caco-2 monolayers; conditions: human; for Papp A→B at 1 h, 5 μM: pH 7.4, Papp A-to-B, Caco^MRP2−/−BCRP−/−, 5 μM substrate, 37°C, HBSS pH 7.4, n = 3
[12] = test system: Caco^MRP2−/−BCRP−/− cells; assay: as above; conditions: Caco^MRP2−/−BCRP−/−; 5 μM substrate; 1 h, 37°C, HBSS pH 7.4; n = 3
[13] = Bidirectional transport assay, P-gp single- and double-KO cells taken together; assay type: in vitro ADME; conditions: human, pH 7.4, 5 μM substrate
Description: as §1, §2, §3

[14] = test system: BCRP, MRP2, and MRP2/BCRP knock-out cell lines mediated by ZFN; set-up: method as in Sampson et al., 2015; conditions: ref Sampson et al., 2015, cited from earlier work

Papp A-to-B (Caco-2 WT cells [1]): 1.05 ± 0.34 ×10^−6cm/s
Papp B-to-A (Caco-2 WT cells [1]): 8.25 ± 0.63 ×10^−6cm/s
Papp A-to-B (Caco^Pgp−/− cells): 1.94 ± 0.10 ×10^−6cm/s
Papp B-to-A (Caco^Pgp−/− cells): 11.95 ± 1.61 ×10^−6cm/s
Papp A-to-B (Caco^BCRP−/− cells): 2.14 ± 0.08 ×10^−6cm/s
Papp B-to-A (Caco^BCRP−/− cells): 10.63 ± 0.96 ×10^−6cm/s
Papp A-to-B (Caco^MRP2−/− cells): 2.33 ± 0.62 ×10^−6cm/s
Papp B-to-A (Caco^MRP2−/− cells): 1.10 ± 0.13 ×10^−6cm/s
Papp A-to-B (Caco^Pgp−/−BCRP−/− cells): 2.02 ± 0.20 ×10^−6cm/s
Papp B-to-A (Caco^Pgp−/−BCRP−/− cells): 9.42 ± 0.55 ×10^−6cm/s
Papp A-to-B (Caco^Pgp−/−MRP2−/− cells): 2.41 ± 0.55 ×10^−6cm/s
Papp B-to-A (Caco^Pgp−/−MRP2−/− cells): 1.64 ± 0.46 ×10^−6cm/s
Papp A-to-B [2]: 3.48 ± 0.51 ×10^−6cm/s
Papp B-to-A [2]: 3.05 ± 0.80 ×10^−6cm/s
Molecule: 5-(and-6)-carboxy-2′,7′-dichlorofluorescein [CDCF]

Molecule: CC(C)CN(C[C@@H](O)[C@H](Cc1ccccc1)NC(=O)O[C@H]1CO[C@H]2OCC[C@H]21)S(=O)(=O)c1ccc(N)cc1 [Darunavir]
Papp A→B at 1 h, 5 μM ([3]; pH 7.4, read-out: Papp (A-to-B) permeability): 1.7 to 1.8 ×10⁻⁶ cm/s
Papp B→A at 1 h, 5 μM ([3]; pH 7.4, read-out: Papp (B-to-A) permeability): 29.8 to 34.3 ×10⁻⁶ cm/s
Papp A→B at 1 h, 5 μM ([4]; Caco-2, pH 7.4, Papp A-to-B, WT Caco-2, 5 μM substrate, 1 h, 37°C, HBSS pH 7.4, n = 3): 2.6 ×10⁻⁶ cm/s
Papp B→A at 1 h, 5 μM ([4]; Caco-2, pH 7.4, Papp B-to-A, WT Caco-2, 5 μM substrate, 1 h, 37°C, HBSS pH 7.4, n = 3): 26.6 ×10⁻⁶ cm/s
Papp A-to-B (Caco-2 WT cells [5]; 1 h, 37°C, HBSS pH 7.4): 2.65 ± 0.22 ×10^−6cm/s
Papp B-to-A (Caco-2 WT cells [5]; 1 h, 37°C, HBSS pH 7.4): 26.59 ± 2.06 ×10^−6cm/s
Papp A→B at 1 h, 5 μM [6]: 15.1 ± 0.68 ×10⁻⁶ cm/s
Papp B→A at 1 h, 5 μM [6]: 13.6 ± 0.8 ×10⁻⁶ cm/s
Papp A→B at 1 h, 5 μM [7]: 1.75 ± 0.13 ×10⁻⁶ cm/s
Papp B→A at 1 h, 5 μM [7]: 34.32 ± 0.19 ×10⁻⁶ cm/s
Papp A→B at 1 h, 5 μM [8]: 1.9 ± 0.14 ×10⁻⁶ cm/s
Papp B→A at 1 h, 5 μM [8]: 29.84 ± 0.24 ×10⁻⁶ cm/s
Papp A→B at 1 h, 5 μM [9]: 12.6 ± 1.31 ×10⁻⁶ cm/s
Papp B→A at 1 h, 5 μM [9]: 11.5 ± 0.38 ×10⁻⁶ cm/s
Papp A→B at 1 h, 5 μM [10]: 10.1 ± 0.44 ×10⁻⁶ cm/s
Papp B→A at 1 h, 5 μM [10]: 10.4 ± 0.2 ×10⁻⁶ cm/s
Papp B→A at 1 h, 5 μM ([11]; pH 7.4): 27 ± 0.79 ×10⁻⁶ cm/s
Papp A→B at 1 h, 5 μM [11]: 4.4 ×10⁻⁶ cm/s
Papp A-to-B [12]: 4.43 ± 0.63 ×10^−6cm/s

efflux ratio at 1 h, 5 μM [13]: 1
Papp A→B at 1 h, 5 μM ([4]; Caco-2, pH 7.4): 1.48 ± 0.21 ×10⁻⁶ cm/s
Papp B→A at 1 h, 5 μM ([4]; Caco-2, pH 7.4): 9.33 ± 1.34 ×10⁻⁶ cm/s
efflux ratio at 1 h, 5 μM ([4]; Caco-2, pH 7.4, Efflux ratio, WT Caco-2, 5 μM substrate, Papp(B-to-A)/Papp(A-to-B), n = 3): 6.4
Efflux ratio (Caco-2 WT cells [5]; Papp(B-to-A)/Papp(A-to-B)): 6.38 ± 1.21
Papp A→B at 1 h, 5 μM [6]: 1.42 ± 0.2 ×10⁻⁶ cm/s
Papp B→A at 1 h, 5 μM [6]: 1.67 ± 0.23 ×10⁻⁶ cm/s
efflux ratio at 1 h, 5 μM [6]: 1.2 ± 0.21
Papp A→B at 1 h, 5 μM [7]: 1.66 ± 0.42 ×10⁻⁶ cm/s
Papp B→A at 1 h, 5 μM [7]: 14.8 ± 1.85 ×10⁻⁶ cm/s
efflux ratio at 1 h, 5 μM ([7]; pH 7.4, Efflux ratio, Caco^BCRP−/−, 5 μM substrate, n = 3): 9.11 ± 1.66
Papp A→B at 1 h, 5 μM [8]: 2.05 ± 0.51 ×10⁻⁶ cm/s
Papp B→A at 1 h, 5 μM [8]: 17.6 ± 1.13 ×10⁻⁶ cm/s
efflux ratio at 1 h, 5 μM [8]: 9.08 ± 2.87
Papp A→B at 1 h, 5 μM [9]: 2.42 ± 0.64 ×10⁻⁶ cm/s
Papp B→A at 1 h, 5 μM [9]: 2.08 ± 0.12 ×10⁻⁶ cm/s
efflux ratio at 1 h, 5 μM [9]: 0.9 ± 0.21
Papp A→B at 1 h, 5 μM [10]: 1.95 ± 0.92 ×10⁻⁶ cm/s
Papp B→A at 1 h, 5 μM [10]: 1.87 ± 0.4 ×10⁻⁶ cm/s
efflux ratio at 1 h, 5 μM [10]: 1.05 ± 0.29
Papp B→A at 1 h, 5 μM ([11]; pH 7.4): 17.9 ± 0.63 ×10⁻⁶ cm/s
efflux ratio at 1 h, 5 μM ([11]; pH 7.4): 9.36 ± 3.17
Papp A→B at 1 h, 5 μM [11]: 2.03 ± 0.55 ×10⁻⁶ cm/s
Molecule: C[C@H]1O[C@@H](O[C@H]2[C@@H](O)C[C@H](O[C@H]3[C@@H](O)C[C@H](O[C@H]4CC[C@@]5(C)[C@H](CC[C@@H]6[C@@H]5C[C@@H](O)[C@]5(C)[C@@H](C7=CC(=O)OC7)CC[C@]65O)C4)O[C@@H]3C)O[C@@H]2C)C[C@H](O)[C@@H]1O [Digoxin]
Papp A-to-B ([14]; BCRP, MRP2, and MRP2/BCRP knock-out cell lines mediated by ZFN): ~ 0.25 × 10^–6 cm/s
Papp A-to-B ([14]; starting value before knock-out ('from')): 0.99 × 10^–6 cm/s

Reference: publication PMC9649518, “Knockout of ABC transporters by CRISPR/Cas9 contributes to reliable and accurate transporter substrate identification for drug discovery” (Frontiers in Pharmacology, 2022)
